Test results: article PMC5218480 (PLoS ONE, 2017)

Tested on: MV-4-11 cells
Assay: Gene expression microarray analysis (Affymetrix PrimeView) and GSEA
Assay type: cell-based, human
Design: RFU PODN (11730768_x_at) / Fold change /veh PODN (11730768_x_at) / RFU LINC00158 (11744669_a_at) / Fold change /veh LINC00158 (11744669_a_at) / RFU DUSP10 (11751237_a_at) / Fold change /veh DUSP10 (11751237_a_at) / RFU ID3 (11757404_x_at) / Fold change /veh ID3 (11757404_x_at) / RFU PLEKHG5 (11737974_s_at) / Fold change /veh PLEKHG5 (11737974_s_at) / RFU LRRC4B (11730491_at) / Fold change /veh LRRC4B (11730491_at) / RFU GIMAP4 (11747438_a_at) / Fold change /veh GIMAP4 (11747438_a_at) / RFU KRT8 (11758183_x_at) / Fold change /veh KRT8 (11758183_x_at) / RFU CNN1 (11734310_a_at) / Fold change /veh CNN1 (11734310_a_at) / RFU VPS37D (11726825_at) / Fold change /veh VPS37D (11726825_at) / RFU C10orf10 (11716522_x_at) / Fold change /veh C10orf10 (11716522_x_at) / RFU KIR2DL2 /// KIR2DL4 /// KIR2DL5A /// KIR2DL5B /// KIR2DS1 /// KIR2DS2 /// KIR2DS3 /// KIR2DS4 /// KIR3DL3 /// KIR3DL3 /// KIR3DS1 (11738374_at) / Fold change /veh KIR2DL2 /// KIR2DL4 /// KIR2DL5A /// KIR2DL5B /// KIR2DS1 /// KIR2DS2 /// KIR2DS3 /// KIR2DS4 /// KIR3DL3 /// KIR3DL3 /// KIR3DS1 (11738374_at) / RFU C1QL1 (11718748_at) / Fold change /veh C1QL1 (11718748_at) / RFU TMPRSS4 (11747572_a_at) / Fold change /veh TMPRSS4 (11747572_a_at) / RFU HAMP (11756126_x_at) / Fold change /veh HAMP (11756126_x_at) / RFU RNFT2 (11725882_a_at) / Fold change /veh RNFT2 (11725882_a_at) / RFU NR4A2 (11747474_a_at) / Fold change /veh NR4A2 (11747474_a_at) / RFU ABCC12 (11746883_a_at) / Fold change /veh ABCC12 (11746883_a_at) / RFU TMEM136 (11760407_x_at) / Fold change /veh TMEM136 (11760407_x_at) / RFU CLDN22 /// WWC2 (11732394_at) / Fold change /veh CLDN22 /// WWC2 (11732394_at) / RFU HLA-DPB1 (11760878_x_at) / Fold change /veh HLA-DPB1 (11760878_x_at) / RFU SPINT1 (11716480_a_at) / Fold change /veh SPINT1 (11716480_a_at) / RFU GAP43 (11754022_s_at) / Fold change /veh GAP43 (11754022_s_at) / RFU A4GNT (11735810_at) / Fold change /veh A4GNT (11735810_at) / RFU PRB3 (11715151_x_at) / Fold change /veh PRB3 (11715151_x_at) / RFU TUBB4B (11761932_at) / Fold change /veh TUBB4B (11761932_at) / RFU CAPN14 (11732068_a_at) / Fold change /veh CAPN14 (11732068_a_at) / RFU TMCC2 (11721928_a_at) / Fold change /veh TMCC2 (11721928_a_at) / RFU IRGQ (11745062_a_at) / Fold change /veh IRGQ (11745062_a_at) / RFU FAM174B (11720279_a_at) / Fold change /veh FAM174B (11720279_a_at) / RFU TMPRSS4 (11748680_a_at) / Fold change /veh TMPRSS4 (11748680_a_at) / RFU FAM212B (11763350_a_at) / Fold change /veh FAM212B (11763350_a_at) / RFU PLEKHG5 (11743358_a_at) / Fold change /veh PLEKHG5 (11743358_a_at) / RFU ZSCAN30 (11745921_a_at) / Fold change /veh ZSCAN30 (11745921_a_at) / RFU CMKLR1 (11741424_a_at) / Fold change /veh CMKLR1 (11741424_a_at) / RFU LOC101060620 /// MAPK8IP1 (11723275_at) / Fold change /veh LOC101060620 /// MAPK8IP1 (11723275_at) / RFU SPTSSB (11747773_x_at) / Fold change /veh SPTSSB (11747773_x_at) / RFU PRSS12 (11739890_at) / Fold change /veh PRSS12 (11739890_at) / RFU BIN1 (11741810_x_at) / Fold change /veh BIN1 (11741810_x_at) / RFU WNT11 (11732464_a_at) / Fold change /veh WNT11 (11732464_a_at) / RFU C10orf10 (11716521_a_at) / Fold change /veh C10orf10 (11716521_a_at) / RFU C5orf56 (11738089_at) / Fold change /veh C5orf56 (11738089_at) / RFU CYB561 (11721691_x_at) / Fold change /veh CYB561 (11721691_x_at) / RFU ANKRD19P (11752326_a_at) / Fold change /veh ANKRD19P (11752326_a_at) / RFU OR2T12 /// OR2T33 /// OR2T8 (11738714_s_at) / Fold change /veh OR2T12 /// OR2T33 /// OR2T8 (11738714_s_at) / RFU VCAN (11748164_a_at) / Fold change /veh VCAN (11748164_a_at) / RFU JSRP1 (11732532_at) / Fold change /veh JSRP1 (11732532_at) / RFU KRTAP10-11 (11738290_x_at) / Fold change /veh KRTAP10-11 (11738290_x_at) / RFU MYO3A (11730013_a_at) / Fold change /veh MYO3A (11730013_a_at) / RFU EBF3 (11725865_a_at) / Fold change /veh EBF3 (11725865_a_at) / RFU CAMK2N1 (11719241_x_at) / Fold change /veh CAMK2N1 (11719241_x_at) / RFU C5orf56 (11738088_a_at) / Fold change /veh C5orf56 (11738088_a_at) / RFU OLFML3 (11715873_a_at) / Fold change /veh OLFML3 (11715873_a_at) / RFU LOC100653217 /// NTM (11731650_a_at) / Fold change /veh LOC100653217 /// NTM (11731650_a_at) / RFU MAPK11 (11762145_a_at) / Fold change /veh MAPK11 (11762145_a_at) / RFU FIZ1 (11724087_x_at) / Fold change /veh FIZ1 (11724087_x_at) / RFU OASL (11726364_x_at) / Fold change /veh OASL (11726364_x_at) / RFU SOX15 (11748057_x_at) / Fold change /veh SOX15 (11748057_x_at) / RFU CD79A (11719716_a_at) / Fold change /veh CD79A (11719716_a_at) / RFU HIST1H1D (11736915_at) / Fold change /veh HIST1H1D (11736915_at) / RFU CASKIN2 (11723855_a_at) / Fold change /veh CASKIN2 (11723855_a_at) / RFU LOC730098 (11760151_x_at) / Fold change /veh LOC730098 (11760151_x_at) / RFU OR4N2 (11742367_at) / Fold change /veh OR4N2 (11742367_at) / RFU PRRT2 (11749266_a_at) / Fold change /veh PRRT2 (11749266_a_at) / RFU SNX32 (11753110_a_at) / Fold change /veh SNX32 (11753110_a_at) / RFU CDHR5 (11726645_a_at) / Fold change /veh CDHR5 (11726645_a_at) / RFU RCAN1 (11760418_a_at) / Fold change /veh RCAN1 (11760418_a_at) / RFU FAM167A (11723789_a_at) / Fold change /veh FAM167A (11723789_a_at) / RFU FAM26E (11764081_at) / Fold change /veh FAM26E (11764081_at) / RFU ISYNA1 (11749810_s_at) / Fold change /veh ISYNA1 (11749810_s_at) / RFU ACY1 (11761880_at) / Fold change /veh ACY1 (11761880_at) / RFU 11764098_at / Fold change /veh 11764098_at / RFU SAMD14 (11745864_x_at) / Fold change /veh SAMD14 (11745864_x_at) / RFU NPB (11741838_a_at) / Fold change /veh NPB (11741838_a_at) / RFU TMPRSS6 (11731388_a_at) / Fold change /veh TMPRSS6 (11731388_a_at) / RFU KRTAP10-2 (11738614_at) / Fold change /veh KRTAP10-2 (11738614_at) / RFU ARHGAP8 /// PRR5-ARHGAP8 (11727945_x_at) / Fold change /veh ARHGAP8 /// PRR5-ARHGAP8 (11727945_x_at) / RFU KRTAP5-7 /// NADSYN1 (11734609_at) / Fold change /veh KRTAP5-7 /// NADSYN1 (11734609_at) / RFU RASL12 (11751679_a_at) / Fold change /veh RASL12 (11751679_a_at) / RFU CDKN2B (11736163_a_at) / Fold change /veh CDKN2B (11736163_a_at) / RFU PRF1 (11729649_at) / Fold change /veh PRF1 (11729649_at) / RFU, ZNF638 /// ZNF638-IT1 / Fold change vs veh, ZNF638 /// ZNF638-IT1 / RFU, PANK3 / Fold change vs veh, PANK3 / RFU, SH3YL1 / Fold change vs veh, SH3YL1 / RFU, ZEB2 / Fold change vs veh, ZEB2 / RFU, NRIP1 / Fold change vs veh, NRIP1 / RFU, PTTG1IP / Fold change vs veh, PTTG1IP / RFU, CAPN2 / Fold change vs veh, CAPN2 / RFU, MED14 / Fold change vs veh, MED14 / RFU, SNORA58 / Fold change vs veh, SNORA58 / RFU, C1orf63 / Fold change vs veh, C1orf63 / RFU, LRRFIP1 / Fold change vs veh, LRRFIP1 / RFU, NDUFAF7 / Fold change vs veh, NDUFAF7 / RFU, SLC12A2 / Fold change vs veh, SLC12A2 / RFU, IBTK / Fold change vs veh, IBTK / RFU, ESF1 / Fold change vs veh, ESF1 / Fold change vs veh, TMEM50B / RFU, TAOK1 / Fold change vs veh, TAOK1 / RFU, ACBD3 / Fold change vs veh, ACBD3 / RFU, TMA16 / Fold change vs veh, TMA16 / RFU, RWDD3 / Fold change vs veh, RWDD3 / RFU, BCAT1 / Fold change vs veh, BCAT1 / RFU, EDEM3 / Fold change vs veh, EDEM3 / RFU, TMEM33 / Fold change vs veh, TMEM33 / RFU, WDR75 / Fold change vs veh, WDR75 / RFU, AHCTF1 / Fold change vs veh, AHCTF1 / RFU, TFRC / Fold change vs veh, TFRC / RFU, ZDHHC17 / Fold change vs veh, ZDHHC17 / RFU, NOM1 / Fold change vs veh, NOM1 / RFU, ARL8B / Fold change vs veh, ARL8B / RFU, ZBTB11 / Fold change vs veh, ZBTB11 / RFU, TAMM41 / Fold change vs veh, TAMM41 / RFU, KIAA1704 /// LOC100996395 / Fold change vs veh, KIAA1704 /// LOC100996395 / RFU, ING1 / Fold change vs veh, ING1 / RFU, TRMT61B / Fold change vs veh, TRMT61B / RFU, FUBP3 / Fold change vs veh, FUBP3 / RFU, TP53 / Fold change vs veh, TP53 / RFU, TNKS2 / Fold change vs veh, TNKS2 / RFU, ZFP14 / Fold change vs veh, ZFP14 / RFU, ACTR2 / Fold change vs veh, ACTR2 / RFU, PPP3R1 / Fold change vs veh, PPP3R1 / RFU, PIK3R1 / Fold change vs veh, PIK3R1 / RFU, HNRNPA1 / Fold change vs veh, HNRNPA1 / RFU, RNF170 / Fold change vs veh, RNF170 / RFU, ZNF28 / Fold change vs veh, ZNF28 / RFU, RNGTT / Fold change vs veh, RNGTT / RFU, OGT / Fold change vs veh, OGT / RFU, BRD1 / Fold change vs veh, BRD1 / RFU, MARS / Fold change vs veh, MARS / RFU, ZNF655 / Fold change vs veh, ZNF655 / RFU, FAHD1 / Fold change vs veh, FAHD1 / RFU, BDP1 / Fold change vs veh, BDP1 / RFU, LRRCC1 / Fold change vs veh, LRRCC1 / RFU, ARID1A / Fold change vs veh, ARID1A / RFU, ZNF146 / Fold change vs veh, ZNF146 / RFU, ZNF330 / Fold change vs veh, ZNF330 / RFU, GPN3 / Fold change vs veh, GPN3 / RFU, C9orf123 / Fold change vs veh, C9orf123 / RFU, N4BP2L2 / Fold change vs veh, N4BP2L2 / RFU, ARFIP1 / Fold change vs veh, ARFIP1 / RFU, FAM179B / Fold change vs veh, FAM179B / RFU, BCL10 / Fold change vs veh, BCL10 / RFU, UHRF1BP1L / Fold change vs veh, UHRF1BP1L / RFU, BET1 / Fold change vs veh, BET1 / RFU, CNOT2 / Fold change vs veh, CNOT2 / RFU, ZNF268 / Fold change vs veh, ZNF268 / Fold change vs veh, ZNF507 / RFU, DGCR2 / Fold change vs veh, DGCR2 / RFU, WDSUB1 / Fold change vs veh, WDSUB1 / Fold change vs veh, HSP90B1 /// MIR3652 / RFU, ADSS / Fold change vs veh, ADSS / RFU, GK / Fold change vs veh, GK / RFU, ZNF148 / Fold change vs veh, ZNF148 / RFU, TAF9 / Fold change vs veh, TAF9 / RFU, SLC1A5 / Fold change vs veh, SLC1A5 / RFU, SLMO2 / Fold change vs veh, SLMO2 / RFU, ABCC4 / Fold change vs veh, ABCC4 / RFU, LOC101060439 /// RAP1B / Fold change vs veh, LOC101060439 /// RAP1B / RFU, RFX7 / Fold change vs veh, RFX7 / RFU, GTPBP10 / Fold change vs veh, GTPBP10 / RFU, CNEP1R1 / Fold change vs veh, CNEP1R1 / RFU, BIVM-ERCC5 /// ERCC5 / Fold change vs veh, BIVM-ERCC5 /// ERCC5 / RFU, ILF3 / Fold change vs veh, ILF3 / RFU 11762660_at / Fold change /veh 11762660_at / RFU VCAN (11757783_s_at) / Fold change /veh VCAN (11757783_s_at) / RFU DDX43 (11728927_at) / Fold change /veh DDX43 (11728927_at) / RFU KRT8 (11758188_x_at) / Fold change /veh KRT8 (11758188_x_at) / RFU NKD1 (11759106_at) / Fold change /veh NKD1 (11759106_at) / RFU SRD5A1 (11742802_a_at) / Fold change /veh SRD5A1 (11742802_a_at) / RFU TPSAB1 /// TPSB2 (11721975_s_at) / Fold change /veh TPSAB1 /// TPSB2 (11721975_s_at) / RFU GSTM3 (11746129_a_at) / Fold change /veh GSTM3 (11746129_a_at) / RFU IL23R (11737362_x_at) / Fold change /veh IL23R (11737362_x_at) / RFU TMEM51 (11727254_a_at) / Fold change /veh TMEM51 (11727254_a_at) / RFU PIWIL2 (11732686_x_at) / Fold change /veh PIWIL2 (11732686_x_at) / RFU ORM1 (11744905_x_at) / Fold change /veh ORM1 (11744905_x_at) / RFU CCDC152 (11743942_at) / Fold change /veh CCDC152 (11743942_at) / RFU ECM1 (11717891_a_at) / Fold change /veh ECM1 (11717891_a_at) / RFU IL23R (11748794_a_at) / Fold change /veh IL23R (11748794_a_at) / RFU TNFAIP8L3 (11732012_x_at) / Fold change /veh TNFAIP8L3 (11732012_x_at) / RFU MBOAT4 (11741988_at) / Fold change /veh MBOAT4 (11741988_at) / RFU 11764193_at / Fold change /veh 11764193_at / RFU TMEM53 (11763286_at) / Fold change /veh TMEM53 (11763286_at) / RFU MAGEB2 (11727129_at) / Fold change /veh MAGEB2 (11727129_at) / RFU TMEM200A (11744735_a_at) / Fold change /veh TMEM200A (11744735_a_at) / RFU CCDC152 (11751479_a_at) / Fold change /veh CCDC152 (11751479_a_at) / RFU FAM211A (11726209_a_at) / Fold change /veh FAM211A (11726209_a_at) / RFU RGS16 (11746705_a_at) / Fold change /veh RGS16 (11746705_a_at) / RFU VCAN (11755009_s_at) / Fold change /veh VCAN (11755009_s_at) / RFU RHOB (11743442_s_at) / Fold change /veh RHOB (11743442_s_at) / RFU RGS16 (11720943_a_at) / Fold change /veh RGS16 (11720943_a_at) / RFU RGS16 (11720944_at) / Fold change /veh RGS16 (11720944_at) / RFU, VPS4B / Fold change vs veh, VPS4B / RFU, CREB1 / Fold change vs veh, CREB1 / RFU, DNAJC13 / Fold change vs veh, DNAJC13 / RFU, GNAQ / Fold change vs veh, GNAQ / RFU, CDK5R1 / Fold change vs veh, CDK5R1 / RFU, ZRANB3 / Fold change vs veh, ZRANB3 / RFU, CUL4A / Fold change vs veh, CUL4A / RFU, CCNY / Fold change vs veh, CCNY / RFU, UFL1 / Fold change vs veh, UFL1 / RFU, COG3 / Fold change vs veh, COG3 / RFU, DIAPH2 / Fold change vs veh, DIAPH2 / RFU, SKA2 / Fold change vs veh, SKA2 / RFU, AFF3 / Fold change vs veh, AFF3 / RFU, LMF1 / Fold change vs veh, LMF1 / RFU, IPO11 / Fold change vs veh, IPO11 / RFU, DFFB / Fold change vs veh, DFFB / RFU, FOXP1 / Fold change vs veh, FOXP1 / RFU, CARD8 / Fold change vs veh, CARD8 / RFU, STRN3 / Fold change vs veh, STRN3 / RFU, ADK / Fold change vs veh, ADK / RFU, RASSF2 / Fold change vs veh, RASSF2 / RFU, WIPF1 / Fold change vs veh, WIPF1 / RFU, LARP1B / Fold change vs veh, LARP1B / RFU, RASA1 / Fold change vs veh, RASA1 / RFU, RB1 / Fold change vs veh, RB1 / RFU, PPFIA1 / Fold change vs veh, PPFIA1 / RFU, MAT2A / Fold change vs veh, MAT2A / RFU, CCT5 / Fold change vs veh, CCT5 / RFU, WDR92 / Fold change vs veh, WDR92 / RFU, CUX1 / Fold change vs veh, CUX1 / RFU, TTC7A / Fold change vs veh, TTC7A / RFU, TMEM135 / Fold change vs veh, TMEM135 / RFU, DEPTOR / Fold change vs veh, DEPTOR / RFU, CPM / Fold change vs veh, CPM / RFU, DNAJB6 / Fold change vs veh, DNAJB6 / RFU, CACNA2D3 / Fold change vs veh, CACNA2D3 / RFU, DTX4 / Fold change vs veh, DTX4 / RFU, TFCP2 / Fold change vs veh, TFCP2 / RFU, GMCL1 /// GMCL1P1 / Fold change vs veh, GMCL1 /// GMCL1P1 / RFU, AEBP2 / Fold change vs veh, AEBP2 / RFU, SNHG1 /// SNORD22 /// SNORD25 /// SNORD26 /// SNORD27 /// SNORD28 /// SNORD29 /// SNORD31 / Fold change vs veh, SNHG1 /// SNORD22 /// SNORD25 /// SNORD26 /// SNORD27 /// SNORD28 /// SNORD29 /// SNORD31 / Fold change (Aza/veh), C12orf56 (ProbeSet 11735607_a_at) / Fold change (ACY-1035/veh), C12orf56 (ProbeSet 11735607_a_at) / Fold change (Aza/veh), FGFR1OP (ProbeSet 11751329_s_at) / Fold change (ACY-1035/veh), FGFR1OP (ProbeSet 11751329_s_at) / Fold change (Aza/veh), VPS36 (ProbeSet 11739960_a_at) / Fold change (ACY-1035/veh), VPS36 (ProbeSet 11739960_a_at) / RFU SYPL1 (11715823_x_at) / Fold change /veh SYPL1 (11715823_x_at) / RFU IGFBP7 (11715501_s_at) / Fold change /veh IGFBP7 (11715501_s_at) / RFU REEP3 (11722064_at) / Fold change /veh REEP3 (11722064_at) / RFU IGLL1 (11728026_x_at) / Fold change /veh IGLL1 (11728026_x_at): dose or concentration left out as unconfirmed
Details: ProbeSet 11716865_a_at; LIST B

## Nc1ccc(-c2cccs2)cc1NC(=O)c1ccc2c(c1)cc(C1CC1)n2CCN1CCOCC1 [ACY-1035]
  Fold change vs veh, SLC1A5: 0.85
